# In patent US8742135B1, “Compound amycolamicin, method for producing the same, and use of the same” (Microbial Chemistry Research Foundation, priority 2009, dated 2014):
# What was measured:
# Assay type in all cases: cell-based
# [1] = tested on: Haemophilus infulenzae IID938; assay: MIC, Muller Hinton agar with sheep blood, 5% CO2 (Test Example 2); conditions: Muller Hinton agar + sheep blood 5% by volume
# [2] = tested on: H. infulenzae T196; assay: as above; conditions: Haemophilus, Muller Hinton agar + sheep blood 5% by volume
# [3] = tested on: P. multocida Kobe; assay: MIC, brain heart infusion agar, multiple dilution method (Test Example 3); conditions: Pasteurella multocida, brain heart infusion agar medium
# Protocol: (§1) According to the standard method of Japanese Society of Chemotherapy, the amycolamicin was measured for antimicrobial spectrum against bacteria causing pneumonia in domestic livestock in the brain heart infusion agar medium by the multiple dilution method.
# [4] = tested on: P. multocida M-17; assay: as above; conditions: Pasteurella multocida, M17, brain heart infusion agar medium
# Protocol: as §1
# [5] = tested on: Mannheimia haemolytica N791; assay: as above; conditions: brain heart infusion agar medium
# Protocol: as §1
# [6] = tested on: Pasteurella multocida No. 6; assay: as above; conditions: brain heart infusion agar medium
# Protocol: as §1
# [7] = tested on: M. haemolytica N811; assay: as above; conditions: Mannheimia haemolytica, brain heart infusion agar medium
# Protocol: as §1
# [8] = tested on: P. multocida TS-8; assay: as above; conditions: Pasteurella multocida, TS8, brain heart infusion agar medium
# Protocol: as §1
# [9] = tested on: H. infulenzae IID987; assay: MIC, Muller Hinton agar with sheep blood, 5% CO2 (Test Example 2); conditions: Haemophilus, Muller Hinton agar + sheep blood 5% by volume
# [10] = tested on: Streptococcus pneumoniae S-223; assay: as above; conditions: S223, Muller Hinton agar + sheep blood 5% by volume
# [11] = tested on: H. infulenzae IID985; assay: as above; conditions: Haemophilus, Muller Hinton agar + sheep blood 5% by volume
# [12] = tested on: H. infulenzae IID986; assay: as above; conditions: Haemophilus, Muller Hinton agar + sheep blood 5% by volume
# [13] = tested on: Actinobacillus pleuropneumoniae NB001; assay: MIC, Muller Hinton agar with Fields enrichment, 5% CO2 (Test Example 4); conditions: Muller Hinton agar + Fields enrichment 5% by volume
# Protocol: (§2) According to the standard method of Japanese Society of Chemotherapy, the amycolamicin was measured for antimicrobial spectrum against bacteria causing pneumonia in domestic livestock other than those listed in Table 3 in the Muller Hinton agar medium supplemented with Fields enrichment (5% by volume) by the multiple dilution method in an atmosphere of 5% by volume CO2.
# [14] = tested on: A. pleuropneumoniae SHP-17; assay: as above; conditions: Actinobacillus pleuropneumoniae, SHP17, Muller Hinton agar + Fields enrichment 5% by volume
# Protocol: as §2
# [15] = tested on: Histophilus somni 23N2359; assay: as above; conditions: Muller Hinton agar + Fields enrichment 5% by volume
# Protocol: as §2
# [16] = tested on: A. pleuropneumoniae YN; assay: as above; conditions: Actinobacillus pleuropneumoniae, Muller Hinton agar + Fields enrichment 5% by volume
# Protocol: as §2
# [17] = tested on: A. pleuropneumoniae Shop1421; assay: as above; conditions: Actinobacillus pleuropneumoniae, Muller Hinton agar + Fields enrichment 5% by volume
# Protocol: as §2
# [18] = tested on: A. pleuropneumoniae CH-1; assay: as above; conditions: Actinobacillus pleuropneumoniae, CH1, Muller Hinton agar + Fields enrichment 5% by volume
# Protocol: as §2
# [19] = tested on: A. pleuropneumoniae CH-2(H4024); assay: as above; conditions: Actinobacillus pleuropneumoniae, Muller Hinton agar + Fields enrichment 5% by volume
# Protocol: as §2
# [20] = tested on: A. pleuropneumoniae Hi-1; assay: as above; conditions: Actinobacillus pleuropneumoniae, HI1, Muller Hinton agar + Fields enrichment 5% by volume
# Protocol: as §2
# [21] = tested on: A. pleuropneumoniae O-223; assay: as above; conditions: Actinobacillus pleuropneumoniae, O223, Muller Hinton agar + Fields enrichment 5% by volume
# Protocol: as §2
# [22] = tested on: A. pleuropneumoniae 7H-3; assay: as above; conditions: Actinobacillus pleuropneumoniae, 7H3, Muller Hinton agar + Fields enrichment 5% by volume
# Protocol: as §2
# [23] = tested on: A. pleuropneumoniae 6H-8; assay: as above; conditions: Actinobacillus pleuropneumoniae, 6H8, Muller Hinton agar + Fields enrichment 5% by volume
# Protocol: as §2
# [24] = tested on: A. pleuropneumoniae HPT-1; assay: as above; conditions: Actinobacillus pleuropneumoniae, HPT1, Muller Hinton agar + Fields enrichment 5% by volume
# Protocol: as §2
# [25] = tested on: A. pleuropneumoniae M-1; assay: as above; conditions: Actinobacillus pleuropneumoniae, M1, Muller Hinton agar + Fields enrichment 5% by volume
# Protocol: as §2
# [26] = tested on: Ent. faecalis NCTC12203(VRE); assay: MIC, Muller Hinton agar, multiple dilution method (Test Example 1); conditions: Enterococcus faecalis, Muller Hinton agar medium
# Protocol: (§3) According to the standard method of Japanese Society of Chemotherapy, the amycolamicin was measured for antimicrobial spectrum against various microorganisms including drug-resistant bacteria (e.g., methicilline resistant bacteria and vancomycin resistant bacteria) in the Muller Hinton agar medium by the multiple dilution method.
# [27] = tested on: S. aureus MS16526(MRSA); assay: as above; conditions: Staphylococcus aureus, Muller Hinton agar medium
# Protocol: as §3
# [28] = tested on: S. aureus MRSA No.5; assay: as above; conditions: Staphylococcus aureus, Muller Hinton agar medium
# Protocol: as §3
# [29] = tested on: S. aureus TY-04282(MRSA); assay: as above; conditions: Staphylococcus aureus, Muller Hinton agar medium
# Protocol: as §3
# [30] = tested on: Escherichia coli NIHJ; assay: as above; conditions: Muller Hinton agar medium
# Protocol: as §3
# [31] = tested on: S. aureus MRSA No.17; assay: as above; conditions: Staphylococcus aureus, Muller Hinton agar medium
# Protocol: as §3
# [32] = tested on: S. aureus MS9610; assay: as above; conditions: Staphylococcus aureus, Muller Hinton agar medium
# Protocol: as §3
# [33] = tested on: Enterococcus faecalis JCM 5803; assay: as above; conditions: JCM5803, Muller Hinton agar medium
# Protocol: as §3
# [34] = tested on: Ent. faecium NCTCI12204(VRE); assay: as above; conditions: Enterococcus faecium, Muller Hinton agar medium
# Protocol: as §3
# [35] = tested on: Ent faecium NCTCI12202(VRE); assay: as above; conditions: Enterococcus, Muller Hinton agar medium
# Protocol: as §3
# [36] = tested on: Ent. faecium JCM 5804; assay: as above; conditions: Enterococcus faecium, JCM5804, Muller Hinton agar medium
# Protocol: as §3
# [37] = tested on: E. coli K-12; assay: as above; conditions: Escherichia coli, K12, Muller Hinton agar medium
# Protocol: as §3
# [38] = tested on: Ent. faecalis NCTC12201(VRE); assay: as above; conditions: Enterococcus faecalis, Muller Hinton agar medium
# Protocol: as §3
# [39] = tested on: Klebsiella pneumoniae PC1602; assay: as above; conditions: Muller Hinton agar medium
# Protocol: as §3
# [40] = tested on: S. aureus Smith; assay: as above; conditions: Staphylococcus aureus, Muller Hinton agar medium
# Protocol: as §3
# [41] = tested on: Staphylococcus aureus FDA209P; assay: as above; conditions: Muller Hinton agar medium
# Protocol: as §3
# [42] = tested on: H. infulenzae IID988; assay: MIC, Muller Hinton agar with sheep blood, 5% CO2 (Test Example 2); conditions: Haemophilus, Muller Hinton agar + sheep blood 5% by volume
smiles,measurement,setting,value
C=C1CCC(OC2CC(O)(C(C)NC(=O)c3[nH]c(C)c(Cl)c3Cl)C(O)C(C)O2)C2C=CC(C)C(C(=O)C3=C(O)C(C(C)C)N(C4OC(C)C(OC(N)=O)C(OC(C)=O)C4OC)C3=O)C12 (stereo not drawn) [amycolamicin],MIC,[1],0.78 µg/mL
same,MIC,[2],0.2 µg/mL
same,MIC,[3],0.78 µg/mL
same,MIC,[4],0.78 µg/mL
same,MIC,[5],0.78 µg/mL
same,MIC,[6],1.56 µg/mL
same,MIC,[7],0.78 µg/mL
same,MIC,[8],0.78 µg/mL
same,MIC,[9],0.78 µg/mL
same,MIC,[10],0.39 µg/mL
same,MIC,[11],0.78 µg/mL
same,MIC,[12],0.78 µg/mL
same,MIC,[13],1.56 µg/mL
same,MIC,[14],1.56 µg/mL
same,MIC,[15],0.2 µg/mL
same,MIC,[16],0.78 µg/mL
same,MIC,[17],3.13 µg/mL
same,MIC,[18],1.56 µg/mL
same,MIC,[19],1.56 µg/mL
same,MIC,[20],3.13 µg/mL
same,MIC,[21],1.56 µg/mL
same,MIC,[22],1.56 µg/mL
same,MIC,[23],1.56 µg/mL
same,MIC,[24],1.56 µg/mL
same,MIC,[25],0.78 µg/mL
same,MIC,[26],0.2 µg/mL
same,MIC,[27],0.39 µg/mL
same,MIC,[28],0.39 µg/mL
same,MIC,[29],0.39 µg/mL
same,MIC,[30],12.5 µg/mL
same,MIC,[31],0.39 µg/mL
same,MIC,[32],0.39 µg/mL
same,MIC,[33],0.2 µg/mL
same,MIC,[34],0.78 µg/mL
same,MIC,[35],0.78 µg/mL
same,MIC,[36],0.78 µg/mL
same,MIC,[37],12.5 µg/mL
same,MIC,[38],0.1 µg/mL
same,MIC,[39],6.25 µg/mL
same,MIC,[40],0.39 µg/mL
same,MIC,[41],0.39 µg/mL
same,MIC,[42],0.78 µg/mL
